What was measured:
Experiment in all cases: Test B pre-/postemergence
Type in all cases: in vivo
Set-up in all cases: key: 0 is no effect; 10 is complete control
[1] = system: bedstraw (Galium aparine)
Text: (§1) Seeds of bedstraw (Galium aparine), blackgrass (Alopecurus myosuroides), broadleaf signalgrass (Brachiaria decumbens), cocklebur (Xanthium strumarium), corn (Zea mays), crabgrass (Digitaria sanguinalis), giant foxtail (Setaria faberii), lambsquarters (Chenopodium album), momingglory (Ipomoea hederacea), pigweed (Amaranthus retroflexus), rape (Brassica napus), soybean (Glycine max), sugar beet (Beta vulgaris), velvetleaf (Abutilon theophrasti), wheat (Triticum aestivum), wild oat (Avena fatua) and purple nutsedge (Cyperus rotundus) tubers were planted and treated preemergence with test chemicals formulated in a non-phytotoxic solvent mixture which included a surfactant.
(§2) At the same time, these crop and weed species were also treated with postemergence applications of test chemicals formulated in the same manner. Plants ranged in height from 2 to 18 cm (1- to 4-leaf stage) for postemergence treatments. Plant species in the flood test consisted of rice (Oryza sativa), smallflower flatsedge (Cyperus difformis), duck salad (Heteranthera limosa) and bamyardgrass (Echinochloa crus-galli) grown to the 2-leaf stage for testing. Treated plants and controls were maintained in a greenhouse for twelve to sixteen days, after which all species were compared to controls and visually evaluated. Plant response ratings, summarized in Table B, are based on a scale of 0 to 10 where 0 is no effect and 10 is complete control. A dash (−) response means no test result.

[2] = system: blackgrass (Alopecurus myosuroides)
Text: as §1, §2

[3] = system: broadleaf signalgrass (Brachiaria decumbens)
Text: as §1, §2

[4] = system: cocklebur (Xanthium strumarium)
Text: as §1, §2

corn (Zea mays) = system: corn (Zea mays)
Text: as §1, §2

[5] = system: crabgrass (Digitaria sanguinalis)
Text: as §1, §2

[6] = system: giant foxtail (Setaria faberii)
Text: as §1, §2

[7] = system: momingglory (Ipomoea hederacea)
Text: as §1, §2

[8] = system: pigweed (Amaranthus retroflexus)
Text: as §1, §2

[9] = system: purple nutsedge (Cyperus rotundus)
Text: as §1, §2

rape (Brassica napus) = system: rape (Brassica napus)
Text: as §1, §2

soybean (Glycine max) = system: soybean (Glycine max)
Text: as §1, §2

[10] = system: sugar beet (Beta vulgaris)
Text: as §1, §2

[11] = system: velvetleaf (Abutilon theophrasti)
Text: as §1, §2

[12] = system: wheat (Triticum aestivum)
Text: as §1, §2

wild oat (Avena fatua) = system: wild oat (Avena fatua)
Text: as §1, §2

SMILES: Cc1cnc(-c2ccc(C(F)(F)F)cc2)nc1Cn1cnc(C(F)(F)F)n1 [Compound 11]
- Plant response rating, Bedstraw ([1]; Rate 62 g/ha, Postemergence): 8
- Bedstraw plant response rating ([1]; Rate 62 g/ha, Preemergence): 5
- Plant response rating, Bedstraw ([1]; Rate 125 g/ha, Postemergence): 9
- Bedstraw plant response rating ([1]; Rate 125 g/ha, Preemergence): 8
- Plant response rating, Bedstraw ([1]; Rate 250 g/ha, Postemergence): 10
- Plant response rating, Bedstraw ([1]; Rate 250 g/ha, Preemergence): 9
- Plant response rating, Bedstraw ([1]; Rate 500 g/ha, Postemergence): 10
- Plant response rating, Bedstraw ([1]; Rate 500 g/ha, Preemergence): 9
- Plant response rating, Blackgrass ([2]; Rate 62 g/ha, Postemergence): 2
- Blackgrass plant response rating ([2]; Rate 62 g/ha, Preemergence): 3
- Plant response rating, Blackgrass ([2]; Rate 125 g/ha, Postemergence): 3
- Blackgrass plant response rating ([2]; Rate 125 g/ha, Preemergence): 3
- Plant response rating, Blackgrass ([2]; Rate 250 g/ha, Postemergence): 7
- Plant response rating, Blackgrass ([2]; Rate 250 g/ha, Preemergence): 5
- Plant response rating, Blackgrass ([2]; Rate 500 g/ha, Postemergence): 5
- Plant response rating, Blackgrass ([2]; Rate 500 g/ha, Preemergence): 5
- Plant response rating, B. signalgrass ([3]; Rate 62 g/ha, Postemergence): 3
- B. signalgrass plant response rating ([3]; Rate 62 g/ha, Preemergence): 2
- Plant response rating, B. signalgrass ([3]; Rate 125 g/ha, Postemergence): 3
- B. signalgrass plant response rating ([3]; Rate 125 g/ha, Preemergence): 3
- Plant response rating, B. signalgrass ([3]; Rate 250 g/ha, Postemergence): 4
- Plant response rating, B. signalgrass ([3]; Rate 250 g/ha, Preemergence): 8
- Plant response rating, B. signalgrass ([3]; Rate 500 g/ha, Postemergence): 7
- Plant response rating, B. signalgrass ([3]; Rate 500 g/ha, Preemergence): 8
- Plant response rating, Cocklebur ([4]; Rate 62 g/ha, Postemergence): 7
- Cocklebur plant response rating ([4]; Rate 62 g/ha, Preemergence): 0
- Plant response rating, Cocklebur ([4]; Rate 125 g/ha, Postemergence): 8
- Plant response rating, Cocklebur ([4]; Rate 250 g/ha, Postemergence): 9
- Plant response rating, Cocklebur ([4]; Rate 250 g/ha, Preemergence): 3
- Plant response rating, Cocklebur ([4]; Rate 500 g/ha, Postemergence): 9
- Plant response rating, Corn (corn (Zea mays); Rate 62 g/ha, Postemergence): 3
- Corn plant response rating (corn (Zea mays); Rate 62 g/ha, Preemergence): 0
- Plant response rating, Corn (corn (Zea mays); Rate 125 g/ha, Postemergence): 3
- Corn plant response rating (corn (Zea mays); Rate 125 g/ha, Preemergence): 0
- Plant response rating, Corn (corn (Zea mays); Rate 250 g/ha, Postemergence): 3
- Plant response rating, Corn (corn (Zea mays); Rate 250 g/ha, Preemergence): 0
- Plant response rating, Corn (corn (Zea mays); Rate 500 g/ha, Postemergence): 3
- Plant response rating, Corn (corn (Zea mays); Rate 500 g/ha, Preemergence): 0
- Plant response rating, Crabgrass ([5]; Rate 62 g/ha, Postemergence): 2
- Crabgrass plant response rating ([5]; Rate 62 g/ha, Preemergence): 7
- Plant response rating, Crabgrass ([5]; Rate 125 g/ha, Postemergence): 4
- Crabgrass plant response rating ([5]; Rate 125 g/ha, Preemergence): 7
- Plant response rating, Crabgrass ([5]; Rate 250 g/ha, Postemergence): 6
- Plant response rating, Crabgrass ([5]; Rate 250 g/ha, Preemergence): 9
- Plant response rating, Crabgrass ([5]; Rate 500 g/ha, Postemergence): 7
- Plant response rating, Crabgrass ([5]; Rate 500 g/ha, Preemergence): 10
- Plant response rating, Giant foxtail ([6]; Rate 62 g/ha, Postemergence): 2
- Giant foxtail plant response rating ([6]; Rate 62 g/ha, Preemergence): 6
- Plant response rating, Giant foxtail ([6]; Rate 125 g/ha, Postemergence): 4
- Giant foxtail plant response rating ([6]; Rate 125 g/ha, Preemergence): 9
- Plant response rating, Giant foxtail ([6]; Rate 250 g/ha, Postemergence): 5
- Plant response rating, Giant foxtail ([6]; Rate 250 g/ha, Preemergence): 9
- Plant response rating, Giant foxtail ([6]; Rate 500 g/ha, Postemergence): 9
- Plant response rating, Giant foxtail ([6]; Rate 500 g/ha, Preemergence): 10
- Plant response rating, Morningglory ([7]; Rate 62 g/ha, Postemergence): 7
- Morningglory plant response rating ([7]; Rate 62 g/ha, Preemergence): 3
- Plant response rating, Morningglory ([7]; Rate 125 g/ha, Postemergence): 10
- Morningglory plant response rating ([7]; Rate 125 g/ha, Preemergence): 8
- Plant response rating, Morningglory ([7]; Rate 250 g/ha, Postemergence): 10
- Plant response rating, Morningglory ([7]; Rate 250 g/ha, Preemergence): 9
- Plant response rating, Morningglory ([7]; Rate 500 g/ha, Preemergence): 10
- Plant response rating, Redroot pigweed ([8]; Rate 62 g/ha, Postemergence): 9
- Redroot pigweed plant response rating ([8]; Rate 62 g/ha, Preemergence): 9
- Plant response rating, Redroot pigweed ([8]; Rate 125 g/ha, Postemergence): 10
- Redroot pigweed plant response rating ([8]; Rate 125 g/ha, Preemergence): 9
- Plant response rating, Redroot pigweed ([8]; Rate 250 g/ha, Postemergence): 10
- Plant response rating, Redroot pigweed ([8]; Rate 250 g/ha, Preemergence): 10
- Plant response rating, Redroot pigweed ([8]; Rate 500 g/ha, Postemergence): 10
- Plant response rating, Redroot pigweed ([8]; Rate 500 g/ha, Preemergence): 10
- Plant response rating, Nutsedge ([9]; Rate 62 g/ha, Postemergence): 1
- Plant response rating, Nutsedge ([9]; Rate 125 g/ha, Postemergence): 1
- Nutsedge plant response rating ([9]; Rate 125 g/ha, Preemergence): 0
- Plant response rating, Nutsedge ([9]; Rate 250 g/ha, Postemergence): 1
- Plant response rating, Nutsedge ([9]; Rate 250 g/ha, Preemergence): 0
- Plant response rating, Nutsedge ([9]; Rate 500 g/ha, Preemergence): 1
- Plant response rating, Rape (rape (Brassica napus); Rate 62 g/ha, Postemergence): 9
- Rape plant response rating (rape (Brassica napus); Rate 62 g/ha, Preemergence): 9
- Plant response rating, Rape (rape (Brassica napus); Rate 125 g/ha, Postemergence): 9
- Rape plant response rating (rape (Brassica napus); Rate 125 g/ha, Preemergence): 9
- Plant response rating, Rape (rape (Brassica napus); Rate 250 g/ha, Postemergence): 10
- Plant response rating, Rape (rape (Brassica napus); Rate 250 g/ha, Preemergence): 10
- Plant response rating, Rape (rape (Brassica napus); Rate 500 g/ha, Postemergence): 10
- Plant response rating, Rape (rape (Brassica napus); Rate 500 g/ha, Preemergence): 10
- Plant response rating, Soybean (soybean (Glycine max); Rate 62 g/ha, Postemergence): 5
- Soybean plant response rating (soybean (Glycine max); Rate 62 g/ha, Preemergence): 1
- Plant response rating, Soybean (soybean (Glycine max); Rate 125 g/ha, Postemergence): 7
- Soybean plant response rating (soybean (Glycine max); Rate 125 g/ha, Preemergence): 1
- Plant response rating, Soybean (soybean (Glycine max); Rate 250 g/ha, Postemergence): 8
- Plant response rating, Soybean (soybean (Glycine max); Rate 250 g/ha, Preemergence): 1
- Plant response rating, Soybean (soybean (Glycine max); Rate 500 g/ha, Postemergence): 9
- Plant response rating, Soybean (soybean (Glycine max); Rate 500 g/ha, Preemergence): 2
- Plant response rating, Sugarbeets ([10]; Rate 62 g/ha, Postemergence): 9
- Sugarbeets plant response rating ([10]; Rate 62 g/ha, Preemergence): 10
- Plant response rating, Sugarbeets ([10]; Rate 125 g/ha, Postemergence): 10
- Sugarbeets plant response rating ([10]; Rate 125 g/ha, Preemergence): 10
- Plant response rating, Sugarbeets ([10]; Rate 250 g/ha, Postemergence): 10
- Plant response rating, Sugarbeets ([10]; Rate 250 g/ha, Preemergence): 10
- Plant response rating, Sugarbeets ([10]; Rate 500 g/ha, Postemergence): 10
- Plant response rating, Sugarbeets ([10]; Rate 500 g/ha, Preemergence): 10
- Plant response rating, Velvetleaf ([11]; Rate 62 g/ha, Postemergence): 8
- Velvetleaf plant response rating ([11]; Rate 62 g/ha, Preemergence): 3
- Plant response rating, Velvetleaf ([11]; Rate 125 g/ha, Postemergence): 8
- Velvetleaf plant response rating ([11]; Rate 125 g/ha, Preemergence): 6
- Plant response rating, Velvetleaf ([11]; Rate 250 g/ha, Postemergence): 8
- Plant response rating, Velvetleaf ([11]; Rate 250 g/ha, Preemergence): 8
- Plant response rating, Velvetleaf ([11]; Rate 500 g/ha, Postemergence): 9
- Plant response rating, Velvetleaf ([11]; Rate 500 g/ha, Preemergence): 10
- Plant response rating, Wheat ([12]; Rate 62 g/ha, Postemergence): 2
- Wheat plant response rating ([12]; Rate 62 g/ha, Preemergence): 0
- Plant response rating, Wheat ([12]; Rate 125 g/ha, Postemergence): 2
- Wheat plant response rating ([12]; Rate 125 g/ha, Preemergence): 1
- Plant response rating, Wheat ([12]; Rate 250 g/ha, Postemergence): 3
- Plant response rating, Wheat ([12]; Rate 250 g/ha, Preemergence): 1
- Plant response rating, Wheat ([12]; Rate 500 g/ha, Postemergence): 3
- Plant response rating, Wheat ([12]; Rate 500 g/ha, Preemergence): 3
- Plant response rating, Wild oats (wild oat (Avena fatua); Rate 62 g/ha, Postemergence): 2
- Wild oats plant response rating (wild oat (Avena fatua); Rate 62 g/ha, Preemergence): 2
- Plant response rating, Wild oats (wild oat (Avena fatua); Rate 125 g/ha, Postemergence): 3
- Wild oats plant response rating (wild oat (Avena fatua); Rate 125 g/ha, Preemergence): 4
- Plant response rating, Wild oats (wild oat (Avena fatua); Rate 250 g/ha, Postemergence): 3
- Plant response rating, Wild oats (wild oat (Avena fatua); Rate 250 g/ha, Preemergence): 4
- Plant response rating, Wild oats (wild oat (Avena fatua); Rate 500 g/ha, Postemergence): 5
- Plant response rating, Wild oats (wild oat (Avena fatua); Rate 500 g/ha, Preemergence): 6
